Calls of active or inactive are those of the source. How the calls were made is not given here.

Sequence of Nuclear receptor coactivator 1 (Homo sapiens) (Q15788 whole entry, looked up): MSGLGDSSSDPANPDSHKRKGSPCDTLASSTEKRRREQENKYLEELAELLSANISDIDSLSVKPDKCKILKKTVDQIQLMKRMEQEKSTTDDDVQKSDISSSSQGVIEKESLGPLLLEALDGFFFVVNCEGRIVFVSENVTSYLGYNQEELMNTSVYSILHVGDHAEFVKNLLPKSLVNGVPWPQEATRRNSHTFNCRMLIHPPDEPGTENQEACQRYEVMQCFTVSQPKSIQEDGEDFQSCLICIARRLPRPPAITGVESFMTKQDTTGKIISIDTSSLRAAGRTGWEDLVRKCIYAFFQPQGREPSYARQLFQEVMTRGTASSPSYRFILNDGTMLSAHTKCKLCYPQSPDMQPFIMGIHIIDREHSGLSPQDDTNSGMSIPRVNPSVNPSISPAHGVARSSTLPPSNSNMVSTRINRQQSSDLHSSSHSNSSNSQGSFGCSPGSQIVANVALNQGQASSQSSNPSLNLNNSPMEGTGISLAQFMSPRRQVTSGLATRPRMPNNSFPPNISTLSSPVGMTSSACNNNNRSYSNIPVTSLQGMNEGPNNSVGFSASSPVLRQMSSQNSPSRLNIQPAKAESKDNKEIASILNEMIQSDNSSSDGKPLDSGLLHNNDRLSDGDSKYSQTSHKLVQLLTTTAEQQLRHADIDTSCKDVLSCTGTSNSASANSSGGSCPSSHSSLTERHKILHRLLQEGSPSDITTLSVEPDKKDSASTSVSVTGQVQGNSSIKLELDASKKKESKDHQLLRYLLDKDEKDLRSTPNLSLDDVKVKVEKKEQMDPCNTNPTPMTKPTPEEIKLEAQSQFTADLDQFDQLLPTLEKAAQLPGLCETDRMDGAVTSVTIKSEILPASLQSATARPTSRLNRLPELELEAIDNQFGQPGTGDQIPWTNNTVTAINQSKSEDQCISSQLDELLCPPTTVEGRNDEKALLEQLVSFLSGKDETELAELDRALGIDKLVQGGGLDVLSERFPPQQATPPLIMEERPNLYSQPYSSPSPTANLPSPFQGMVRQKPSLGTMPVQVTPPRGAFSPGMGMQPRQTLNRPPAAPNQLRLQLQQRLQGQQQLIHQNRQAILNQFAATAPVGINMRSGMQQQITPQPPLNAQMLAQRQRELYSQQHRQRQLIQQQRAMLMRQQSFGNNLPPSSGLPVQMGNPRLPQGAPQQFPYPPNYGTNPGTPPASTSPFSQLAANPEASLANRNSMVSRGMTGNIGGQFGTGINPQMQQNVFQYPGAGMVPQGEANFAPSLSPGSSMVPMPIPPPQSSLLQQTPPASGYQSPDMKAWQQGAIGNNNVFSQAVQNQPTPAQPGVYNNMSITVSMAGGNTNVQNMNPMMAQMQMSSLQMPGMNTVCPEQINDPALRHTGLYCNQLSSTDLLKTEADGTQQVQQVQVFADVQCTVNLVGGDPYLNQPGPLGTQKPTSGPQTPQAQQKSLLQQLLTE

This assay addresses Nuclear receptor coactivator 1 (Homo sapiens) (UniProt Q15788). Nature of the assay: NCOA1 reporter inhibition potency – cell-based, luminescence, counter-screen for SRC3 inhibitor project, dose response (AID 602168). The note with it: Cell-based SRC1 luciferase reporter.
As for `NC(=S)N/N=C1\CCOc2ccc(Cl)cc21`, the IC50 (in general, the concentration needed to halve the response being measured) is > 35.9 µM (inactive). For `COc1cc2oc(=O)cc(-c3ccc(-c4ccc(CO)cc4)cc3)c2c(OC)c1OC` the value was 8.05 µM; for `CCc1ccc(-c2nc(CSCC(=O)NCc3ccco3)c(C)o2)cc1`, > 35.9 µM (inactive). The same measure for `Cc1c(/C(O)=C2/C(=O)C(=O)N(Cc3cccnc3)C2c2ccccn2)cnn1-c1ccccc1` (stereo unspecified): > 35.9 µM (inactive); for `CC(=O)/C(N=Nc1ccc2c(c1)OCCO2)=C(\C)O`: > 35.9 µM (inactive).

Take `CN1CCN(c2ccc(NC(=O)N3CCc4ccccc43)cc2)CC1`: the IC50 was > 35.9 µM (inactive). The same measure for `O=[N+]([O-])c1nn(-c2ccc3c(c2)OCCO3)n(O)c1=Nc1ccccc1`: 0.812 µM; for `CO[C@@]12[C@@H]3N[C@@H]3CN1C1=C(C(=O)C(N)=C(C)C1=O)[C@@H]2COC(N)=O`: > 35.8 µM (inactive); for `C#CC(=O)N(c1cc(OC)ccc1OC)C(C(=O)NC1CCCC1)c1cccs1` (stereo unspecified): > 35.9 µM (inactive). For `CC(C)(C)n1ncc2c(=O)n(CC(=O)OCc3ccccc3)cnc21` the value was > 35.9 µM (inactive). The same measure for `CN(Cc1cnc2nc(N)nc(N)c2n1)c1ccc(C(=O)N[C@@H](CCC(=O)O)C(=O)O)cc1`: > 35.9 µM (inactive); for `CCn1c2ccccc2c2cnc(N=CN(C)C)c(C#N)c21`: “inactive”; for `O=C(CCl)NC(Cc1ccccc1)c1ccccc1` (stereo unspecified): “inactive”. As for `Cc1ccc(-n2c(Cl)c(Cl)nc(Cl)c2=O)cc1`, the IC50 result is “inactive”. The same measure for `CC(C)(C)c1ccc(Oc2ccc(N)cn2)cc1`: “inactive”; for `CCOc1ccc(CC(=O)Nc2ccc(NC(=O)c3ccco3)cc2)cc1OCC`: 4.28 µM; for `O=C(CCCc1nc(-c2ccccc2Cl)no1)NC1CCCC1`: “inactive”. For `Cc1ccc(OCC(=O)c2cc(C)n(-c3ccccc3)c2C)c([N+](=O)[O-])n1`, the IC50 entry was “inactive”. As to `COc1ccccc1C(=O)N(CCC1CCCN1C)c1nc2ccccc2s1` (stereo unspecified), the IC50 was > 35.9 µM (inactive).

As to `COc1ccc(-n2cnc3c(sc4nccc(N(C)C)c43)c2=O)cc1`, the IC50 result was “inactive”.

On to `O=c1[nH]cnc2c1nnn2C1OC(CO)C(O)C1O` (stereo unspecified), for which the IC50 was > 35.8 µM (inactive). The same measure for `Cc1cccc2sc(NNC(=O)c3ccc(S(=O)(=O)N4CC(C)CC(C)C4)cc3)nc12` (stereo unspecified): 4.52 µM; for `CN(C)/C=C/C(=O)c1ccc2noc(-c3ccccc3)c2c1`: “inactive”. For `CC1CCN(C2=NC(=O)/C(=C/c3ccccc3F)S2)CC1` the value was > 35.9 µM (inactive); for `COc1ccc(OC)c(Cc2cnc3nc(N)nc(N)c3c2C)c1`, > 35.9 µM (inactive); for `CN(C)c1ccc(CNC(=O)CCNS(=O)(=O)c2cc(Br)cnc2N)cc1`, “inactive”. For `O=C(Nc1ccc(OCC(=O)N2CCOCC2)cc1)c1cncc(Br)c1` the value was “inactive”; for `Cc1sc2ncnc(N3CCC(C(=O)Nc4ccccc4C(C)(C)C)CC3)c2c1C`, 7.15 µM.

As to `O=S(=O)(/C(=C\c1ccc(C(F)(F)F)cc1)c1nc2ccccc2[nH]1)c1ccccc1`, the IC50 is > 12 µM (inactive). The same measure for `O=c1[nH]c2ccccc2n1C1CCN(C(c2ccccc2)c2nnnn2Cc2ccccc2)CC1` (stereo unspecified): “inactive”. As to `COc1ccc(/C=C2\CC/C(=C\c3ccc(OC)c(OC)c3)C2=O)cc1OC`, the IC50 is > 35.9 µM (inactive).

For `OCCN1CCN(C(=S)c2ccc(-c3ccccc3)cc2)CC1`, the IC50 was 3.67 µM. The same measure for `C=CC[n+]1c(-c2ccc(C)cc2)csc1Nc1ccc(NC(C)=O)cc1`: > 35.9 µM (inactive); for `O=[N+]([O-])c1cccc2c1ccc1ncccc12`: “inactive”.

As to `CC(C)N(c1ccccc1)c1ccc(NC(=O)CCl)cc1`, the IC50 was > 35.8 µM (inactive). For `COc1ccccc1N(C(=O)CCl)c1cn(C(C)=O)c2ccccc12`, the IC50 is > 35.9 µM (inactive). The same measure for `O=c1[nH]c2ccccc2n1C1CCN(C(c2ccccc2)c2nnnn2-c2ccc3c(c2)OCCO3)CC1` (stereo unspecified): “inactive”; for `O=C(NCCCn1ccnc1)c1ccc(N2CCCCCC2)c([N+](=O)[O-])c1`: “inactive”; for `C/C(=N\NC(=S)Nc1cc(S(=O)(=O)N2CCOCC2)ccc1Cl)c1ccccc1F`: “inactive”. As for `COC(CN(C(=O)CCl)C(C(=O)NC1CCCCC1)c1ccccc1C)OC` (stereo unspecified), the IC50 result is “inactive”. The same measure for `Cc1ccc(NC(=O)c2cc(C)n(-c3ccccc3)c2C)cc1`: > 35.9 µM (inactive). For `CCCS(=O)(=O)Nc1ccc(Nc2c3ccccc3nc3ccccc23)c(OC)c1` the value was 0.525 µM; for `CN(Cc1cnc2nc(N)nc(N)c2n1)c1ccc(C(=O)NC(CCC(=O)O)C(=O)O)cc1` (stereo unspecified), > 35.9 µM (inactive); for `Nc1nc(=S)c2ncn([C@@H]3O[C@H](CO)[C@@H](O)[C@H]3O)c2[nH]1`, > 35.9 µM (inactive). The same measure for `COC(=O)c1cc(S(=O)(=O)NCCc2ccc(Cl)cc2)c[nH]1`: “inactive”; for `CN1C(=O)C2(C(C#N)=C(N)N(c3cc(Cl)cc(Cl)c3)C3=C2C(=O)CC(C)(C)C3)c2ccccc21` (stereo unspecified): > 35.9 µM (inactive).

For the molecule `Cc1ccc2occ(/C=N/NC(=O)[C@@H](N)Cc3ccccc3)c(=O)c2c1`, the IC50 entry is “inactive”. The same measure for `Cc1nc([N+](=O)[O-])c(Sc2nc3ccccc3n2C)n1Cc1ccccc1`: > 35.9 µM (inactive); for `Nc1nccc(-c2ccc(-n3cnc4ccccc43)cc2)n1`: 2.23 µM; for `Cc1cccc(Oc2sc(C(=O)c3ccccc3)c(N)c2C#N)c1`: “inactive”. For `CCOc1ccc(-c2cc(C)n3nc(C(N)=O)cc3n2)cc1` the value was “inactive”; for `COC(=O)c1cccc2c1-c1ccccc1/C2=N/O`, 6.3 µM. For `Cc1cc(C(=O)CN2C(=O)c3ccccc3S2(=O)=O)c(C)n1C(C)C`, the IC50 entry was “inactive”. For `CC(=O)c1ccc(Nc2c3c(nc4ccccc24)CCCC3)cc1` the value was > 35.9 µM (inactive). The same measure for `NC(=O)c1sc2nc3c(c(-c4ccco4)c2c1N)CCC3`: 3.29 µM; for `O=C(COC(=O)c1ccc[nH]c1=O)Nc1ccc(N2CCCCC2)cc1`: > 35.9 µM (inactive); for `C=CS(=O)(=O)N(Cc1ccc(Cl)c(Cl)c1)C[C@@H](O)CO`: > 35.8 µM (inactive). `COc1ccc(-c2cn[nH]c2-c2ccc(OC)cc2O)cc1`: the IC50 is 8.83 µM. The same measure for `Nc1ncnc(NCc2ccccc2)c1[N+](=O)[O-]`: “inactive”; for `O=C(CCl)N(c1ccccc1)C1CCS(=O)(=O)C1` (stereo unspecified): “inactive”. For `Cc1cc(/C=C2\Cc3ccccc3C2=O)c(C)n1-c1ccccc1` the value was “inactive”; for `CC(C)(C)C(=O)Nc1ccc(N=Nc2ccccc2)cc1`, > 35.9 µM (inactive); for `c1ccc2c(c1)Nc1ccncc1S2`, “inactive”. On to `O=C(Nc1cccc(C(F)(F)F)c1)Nc1nnc([C@@H]2C[C@H](O)[C@@H](CO)O2)s1`, for which the concentration for half-maximal inhibition (IC50) is 5.71 µM.

On to `CCCNC(=O)c1nnsc1S(=O)(=O)c1ccc(Cl)cc1`, for which the IC50 result is “inactive”. For `CS(=O)c1nc(-c2ccc(Br)cc2)cc(-c2ccccc2)c1C#N` (stereo unspecified) the value was “inactive”; for `O=S(=O)(c1ccc(F)cc1)c1snnc1-c1ccccc1`, > 35.9 µM (inactive).

With `S=C(Nc1ccccc1)Nc1ccc(OCc2ccc(Cl)cc2Cl)cc1`, the IC50 result is “inactive”. For `O=C(Nc1nc2ccccc2s1)C1c2ccccc2Oc2ccccc21` the value was “inactive”; for `COc1cc(C(=O)OCC(=O)Nc2sccc2C(N)=O)cc(OC)c1OC`, > 35.9 µM (inactive); for `Cc1cc(C(=O)COC(=O)C2=COCCO2)c(C)n1-c1ccccc1`, “inactive”.

In the case of `O=c1[nH]c2ccccc2n1C1CCN(C(c2cccc3ccccc23)c2nnnn2-c2ccc3c(c2)OCCO3)CC1` (stereo unspecified), the IC50 entry is “inactive”. For `CN(C)c1ccc(/C=C/c2ccc3ccccc3n2)cc1` the value was “inactive”; for `CCOC(=O)C(=CNc1ccc(NC2=NCC(C)S2)cc1)C(=O)OCC` (stereo unspecified), > 35.8 µM (inactive). In the case of `COc1cccc(NC(=O)CSc2nnc(-c3cc(C)n(-c4ccccc4)c3C)o2)c1`, the IC50 was > 35.9 µM (inactive). For `Cc1cccc(NC(=O)c2cc(Cl)ccc2[N+](=O)[O-])c1` the value was “inactive”; for `Cc1ccc2nc(C(F)(F)F)c(C#N)c(N)c2c1`, “inactive”. For `CCC(=O)N1CCN(c2ccnc3cc(Cl)ccc23)CC1` the value was “inactive”. For `CN(Cc1cnc2nc(N)nc(N)c2n1)c1ccc(C(=O)NC(CCC(=O)O)C(=O)O)c2ccccc12` (stereo unspecified), the IC50 was > 35.9 µM (inactive). As to `CC1(C)N=C(N)N=C(N)N1CCCCc1ccccc1`, the half-maximal inhibitory concentration (IC50) is 4.58 µM. For `N#Cc1c2ccc(O)cc2n2ccccc12` the value was “inactive”; for `CCOC(=O)C(C(C)=O)c1c(Br)c(O)c(O)c2c(C(=O)c3ccc(C)cc3)coc12` (stereo unspecified), > 35.9 µM (inactive); for `Cn1cnc([N+](=O)[O-])c1Sc1nc(N)nc2c1ncn2C1OC(CO)C(O)C1O` (stereo unspecified), > 35.9 µM (inactive). The same measure for `c1ccc(-c2nnc(-c3ccccn3)nc2NC2CCCCC2)cc1`: 4.38 µM. For `O=C(N/N=C(\c1ccccc1)c1ccccn1)c1ccccc1Cl` the value was “inactive”; for `CN(C)S(=O)(=O)c1ccc(N2CCN(S(=O)(=O)c3ccc(F)cc3)CC2)c(Cl)c1`, “inactive”. For `CCCC(=O)NC(c1ccc(Cl)cc1Cl)c1ccc2cccnc2c1O` (stereo unspecified), the half-maximal inhibitory concentration (IC50) was 6.03 µM. The same measure for `O=C(Nc1cccnc1)c1ccc(C(=O)Nc2cccnc2)cc1`: > 35.9 µM (inactive). The same measure for `COc1ccc(CCNC(=O)c2nnn(-c3ccc4c(c3)OCCO4)c2N)cc1OC`: > 35.9 µM (inactive); for `CCCc1c(C)nc2ccccc2c1SCCC#N`: 9.45 µM; for `O=C(NC1CCCCC1)C(c1cccnc1)N(C(=O)CCl)c1cccc(Cl)c1` (stereo unspecified): “inactive”.

For the origin of these results see PubChem BioAssay AID602168 (The Scripps Research Institute Molecular Screening Center, 2012).
